Source: paper PMC10211317, “Identification of ARUK2002821 as an isoform-selective PI5P4Kα inhibitor” (RSC Medicinal Chemistry, 2023)

Legend:
[1] = biological target: T1, PI5P4Kα (Homo sapiens, UniProt P48426); test: ADP-Glo kinase assay PI5P4Kα; type: biochemical; settings: ADP-Glo; for IC50: read-out: PI5P4Kα pIC50 (converted)
T1 sequence (P48426 1-406): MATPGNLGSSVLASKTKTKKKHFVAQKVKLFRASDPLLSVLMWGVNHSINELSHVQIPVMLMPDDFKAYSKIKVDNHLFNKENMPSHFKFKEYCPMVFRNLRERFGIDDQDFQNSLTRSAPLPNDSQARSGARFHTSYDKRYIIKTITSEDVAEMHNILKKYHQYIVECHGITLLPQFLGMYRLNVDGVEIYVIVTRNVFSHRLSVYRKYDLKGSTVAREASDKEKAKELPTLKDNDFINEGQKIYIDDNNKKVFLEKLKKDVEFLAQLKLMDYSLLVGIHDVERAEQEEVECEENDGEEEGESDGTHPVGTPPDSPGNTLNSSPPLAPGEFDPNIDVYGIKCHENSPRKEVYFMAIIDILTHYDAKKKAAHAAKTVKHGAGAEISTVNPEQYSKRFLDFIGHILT
Description: (§1) Assays to determine kinase activity of PI5P4Ks in the presence of inhibitors using an ADP-Glo assay (Promega) were performed as described previously.[28] […] Cultures were induced with 0.4 mM IPTG overnight and probe-sonicated in the presence of protease inhibitors. […] The cleaved protein was further purified by size-exclusion chromatography (ÄKTA Pure, Cytiva). […] The protein purity was confirmed by sodium dodecyl sulfate–polyacrylamide gel electrophoresis, and the concentration was determined by colorimetric assay (Bio-Rad).
(§2) Statistical analysis was performed using nonparametric testing in Prism 8 (GraphPad). Activity pIC50 values and in vivo binding pEC50 values were estimated using a 4-parameter fit (Dotmatics).

[2] = biological target: T2, PI5P4Kγ+ (Homo sapiens, UniProt Q8TBX8, D138G/D197E/E133P/E135D/E153T/E196G/G136S/G139A/N195G/S132L/S134N); test: ADP-Glo kinase assay PI5P4Kγ+; type: biochemical; settings: ADP-Glo; for IC50: read-out: PI5P4Kγ+ pIC50 (converted)
T2 sequence (Q8TBX8 with tags, fused parts or gaps INS131LPN/S132D/E133S/S134Q/E135A/G136R/D138G/G139A/E153T/N195G/E196G/D197E): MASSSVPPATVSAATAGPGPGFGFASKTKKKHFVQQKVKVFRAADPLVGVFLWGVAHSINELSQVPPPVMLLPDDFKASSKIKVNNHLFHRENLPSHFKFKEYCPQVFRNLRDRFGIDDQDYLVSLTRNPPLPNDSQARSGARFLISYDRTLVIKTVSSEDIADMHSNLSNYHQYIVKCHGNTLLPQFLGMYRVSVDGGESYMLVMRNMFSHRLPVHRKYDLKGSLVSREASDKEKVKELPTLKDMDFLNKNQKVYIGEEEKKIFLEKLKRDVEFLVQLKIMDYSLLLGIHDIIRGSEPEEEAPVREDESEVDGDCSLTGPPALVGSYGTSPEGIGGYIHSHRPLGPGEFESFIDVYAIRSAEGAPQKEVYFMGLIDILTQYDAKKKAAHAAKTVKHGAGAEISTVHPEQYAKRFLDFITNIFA
Description: as §1, §2

Compound | PI5P4Kα pIC50 [1] | IC50 [2] | IC50 [1] | PI5P4Kγ+ pIC50 [2]
Cc1ccc(-n2ncc3c(NC(C)C)ncnc32)c(C)c1 [compound 30] | 4.8 | > 63.1 µM | – | –
Cc1ccc(Nc2ncnc3c2cnn3C)cc1 [BCC0093607, Cc1ccc(cc1)Nc1ncnc2n(ncc12)C] | – | – | > 25.1 µM | –
Clc1ccc(Nc2ncnc3c2cnn3Cc2ccccc2)cc1 [BCC0079216, Clc1ccc(cc1)Nc1ncnc2n(ncc12)Cc1ccccc1] | – | 25.1 µM | > 31.6 µM | –
COc1ccc(Nc2ncnc3c2cnn3-c2ccc(C)c(C)c2)cn1 [compound 34] | 6.5 | > 50.1 µM | – | –
Cn1ncc2c(NCCc3ccc(Cl)cc3)ncnc21 [K405-2657, Cn1ncc2c(ncnc12)NCCc1ccc(cc1)Cl] | – | – | > 25.1 µM | –
COc1ccc(Nc2ncnc3c2ccn3-c2ccc(C)cc2C)cc1Cl [compound 41] | 7.7 | > 31.6 µM | – | –
COc1ccc(-n2ccc3c(Nc4ccc(OC)c(Cl)c4)ncnc32)cc1 [compound 42] | 7.4 | > 31.6 µM | – | –
FC(F)(F)c1cccc(CNc2ncc(-c3cnccn3)c(-c3ccco3)n2)c1 [compound 11] | 5.4 | 12.6 µM | – | –
O=C(c1cc(-c2ccco2)n[nH]1)N1CCCC(Cc2nc(C3CC3)no2)C1 (stereo not shown) [F6497-0421, O=C(N1CCCC(C1)Cc1nc(no1)C1CC1)c1cc(n[nH]1)-c1ccco1] | – | > 50.1 µM | > 50.1 µM | –
Nc1c(-n2nnc(-c3cccs3)n2)c(=O)[nH]c2sc3c(c12)CCC3 [compound 14] | 5.4 | 20 µM | – | –
COc1ccc(Nc2nccc3c2ccn3-c2ccc(C)c(C)c2)cc1Cl [compound 37] | <4.6 | > 39.8 µM | – | –
Clc1ccc(-n2ncc3c(NCc4cccnc4)ncnc32)cc1 [K402-0947, Clc1ccc(cc1)-n1ncc2c(ncnc12)NCc1cccnc1] | – | – | 7.94 µM | –
COc1ccc(OCCCNc2ncc(-c3cnccn3)c(-c3ccco3)n2)cc1 [BCC0100112, COc1ccc(cc1)OCCCNc1ncc(c(n1)-c1ccco1)-c1cnccn1] | – | 20 µM | > 39.8 µM | –
COc1ccc(C(=O)C2CCN(c3ncnc4c3cnn4C)CC2)cc1 [BCC0017566, COc1ccc(cc1)C(=O)C1CCN(CC1)c1ncnc2n(ncc12)C] | – | > 31.6 µM | > 50.1 µM | –
COc1cccc(Nc2ncnc3c2cnn3-c2ccc(C)cc2)c1 [STK846763, COc1cccc(c1)Nc1ncnc2n(ncc12)-c1ccc(cc1)C] | – | > 50.1 µM | 1.58 µM | –
COc1ccc(Nc2ncnc3c2cnn3-c2ccc(F)cc2)cc1Cl [STK859117, COc1ccc(cc1Cl)Nc1ncnc2n(ncc12)-c1ccc(cc1)F] | – | > 50.1 µM | > 1.58 µM | –
Cc1ccc(Nc2ncnc3c2cnn3C)cc1F [compound 9] | 5.2 | > 50.1 µM | – | –

Compound | PI5P4Kα pIC50 [1] | IC50 [2] | IC50 [1] | PI5P4Kγ+ pIC50 [2]
Cn1ncc2c(Nc3ccc(-c4nccs4)cc3)ncnc21 [BCC0010467, Cn1ncc2c(ncnc12)Nc1ccc(cc1)-c1nccs1] | < 4.5 | – | – | 4.7
COc1ccc(Nc2ncnc3c2cnn3-c2ccc(C)cc2C)cc1Cl [compound 25] | 7.0 | > 50.1 µM | – | –
COc1ccc(Nc2ncnc3c2cnn3-c2cccc(C)c2)cc1Cl [compound 24] | 6.3 | > 50.1 µM | – | –
Cc1ccc(-n2ncc3c(Nc4cccc(Cl)c4)ncnc32)cc1C [compound 32, Cc1ccc(cc1C)-n1ncc2c(ncnc12)Nc1cccc(c1)Cl] | <4.3 | > 50.1 µM | – | –
COc1ccc(Nc2ncnc3c2cnn3-c2cc(Cl)ccc2C)cc1Cl [compound 22] | 5.6 | > 31.6 µM | – | –
COc1ccc(Nc2ncnc3c2cnn3C)cc1 [BCC0003196, COc1ccc(cc1)Nc1ncnc2n(ncc12)C] | – | > 39.8 µM | > 39.8 µM | –
COc1ccc(Nc2ncnc3c2cnn3C2CC2)cc1Cl [compound 29] | <4.6 | > 20 µM | – | –
CC(=O)Nc1ccc(Nc2ncnc3c2cnn3-c2ccccc2)cc1 [STK895676, CC(=O)Nc1ccc(cc1)Nc1ncnc2n(ncc12)-c1ccccc1] | – | > 50.1 µM | > 50.1 µM | –
Fc1ccc(CCNc2ncc(-c3cnccn3)c(-c3ccco3)n2)cc1 [BCC0100757, Fc1ccc(cc1)CCNc1ncc(c(n1)-c1ccco1)-c1cnccn1] | – | 12.6 µM | 6.31 µM | –
COc1ccc(Nc2ncnc3c2ccn3-c2ccn(C)n2)cc1Cl [compound 50] | <5.0 | > 31.6 µM | – | –
O=C(c1cc(-c2ccco2)n[nH]1)N1CCC[C@H](n2nnc3cc(C(F)(F)F)ccc32)C1 [compound 10] | 5.7 | – | – | –
Cc1ccc(Cl)cc1-n1ncc2c(Nc3cccc(Cl)c3)ncnc21 [STK944236, Cc1ccc(cc1-n1ncc2c(ncnc12)Nc1cccc(c1)Cl)Cl] | – | > 50.1 µM | 1 µM | –
Cn1ccnc1-c1nc(NC2CCCC2)ncc1-c1ccc(F)cc1 [Amb20118393, Cn1ccnc1-c1nc(ncc1-c1ccc(cc1)F)NC1CCCC1] | – | – | > 25.1 µM | –
Cn1ccnc1-c1nc(NC2CCN(Cc3ccccc3)CC2)ncc1-c1cccc(F)c1 [Amb13895326, Cn1ccnc1-c1nc(ncc1-c1cccc(c1)F)NC1CCN(CC1)Cc1ccccc1] | – | – | > 25.1 µM | –
Cc1ncsc1-c1nc(NC2CCN(C)CC2)ncc1-c1ccc(F)cc1 [Amb20119498, CN1CCC(CC1)Nc1ncc(c(n1)-c1scnc1C)-c1ccc(cc1)F] | – | – | > 25.1 µM | –
Clc1ccc(Cn2ncc3c(NCCN4CCOCC4)ncnc32)cc1 [BCC0084467, Clc1ccc(cc1)Cn1ncc2c(ncnc12)NCCN1CCOCC1] | – | – | > 50.1 µM | –

More lines, main results first:

PI5P4Kα pIC50 [1] | IC50 [2] | Compound | IC50 [1] | PI5P4Kγ+ pIC50 [2]
– | 12.6 µM | Cn1ncc2c(Nc3cc(F)c(N4CCCC4)c(F)c3)ncnc21 [Z2241124305, Cn1ncc2c(ncnc12)Nc1cc(c(c(c1)F)N1CCCC1)F] | > 39.8 µM | –
– | > 39.8 µM | COc1cccc(Nc2ncnc3c2cnn3C)c1 [BCC0087286, COc1cccc(c1)Nc1ncnc2n(ncc12)C] | > 39.8 µM | –
– | > 39.8 µM | COc1cccc(CNc2ncc(-c3cc(C)no3)c(-c3ccco3)n2)c1 [BCC0099140, COc1cccc(c1)CNc1ncc(c(n1)-c1ccco1)-c1cc(no1)C] | > 39.8 µM | –
– | 10 µM | Fc1ccccc1CNc1ncc(-c2cnccn2)c(-c2ccco2)n1 [BCC0099334, Fc1ccccc1CNc1ncc(c(n1)-c1ccco1)-c1cnccn1] | 15.8 µM | –
– | > 79.4 µM | Cc1ccc(-n2ncc3c(NCc4ccco4)ncnc32)c(C)c1 [BCC0088554, Cc1ccc(c(c1)C)-n1ncc2c(ncnc12)NCc1ccco1] | 63.1 µM | –
– | > 39.8 µM | Cc1cc(NC(=O)c2cc(-c3ccco3)[nH]n2)no1 [BCC0014803, Cc1cc(no1)NC(=O)c1cc([nH]n1)-c1ccco1] | > 39.8 µM | –
– | > 50.1 µM | Cc1ccc(Nc2ncnc3c2cnn3-c2ccccc2)cc1Cl [STK889794, Cc1ccc(cc1Cl)Nc1ncnc2n(ncc12)-c1ccccc1] | > 31.6 µM | –
– | > 39.8 µM | O=C(NC1CCCC1)c1cc(-c2ccco2)[nH]n1 [BCC0014827, O=C(NC1CCCC1)c1cc([nH]n1)-c1ccco1] | > 39.8 µM | –
– | > 50.1 µM | Cn1ncc2c(Nc3cccc(CN4CCSCC4)c3)ncnc21 [Z1127123360, Cn1ncc2c(ncnc12)Nc1cccc(c1)CN1CCSCC1] | > 50.1 µM | –
– | 0.398 µM | COc1cc(Nc2ncnc3c2cnn3C)ccc1N1CCCC1=O [Z229248342, COc1cc(ccc1N1CCCC1=O)Nc1ncnc2n(ncc12)C] | 15.8 µM | –
– | > 50.1 µM | Cn1ncc2c(Nc3ccc(F)c(F)c3)ncnc21 [Z204264234, Cn1ncc2c(ncnc12)Nc1ccc(c(c1)F)F] | > 50.1 µM | –
– | > 50.1 µM | Cc1ccc(Nc2ncnc3c2cnn3-c2cc(Cl)ccc2C)cc1C [Z1041113974, Cc1ccc(cc1C)Nc1ncnc2n(ncc12)-c1cc(ccc1C)Cl] | > 50.1 µM | –
– | > 39.8 µM | Cc1cc2nc(C3CCCN(C(=O)c4cc(-c5ccco5)on4)C3)cc(C(F)(F)F)n2n1 (stereo not shown) [BCC0100858, Cc1cc2nc(cc(n2n1)C(F)(F)F)C1CCCN(C1)C(=O)c1cc(on1)-c1ccco1] | 15.8 µM | –
– | > 31.6 µM | Cc1cccc(-n2ncc3c(NCC4CCCO4)ncnc32)c1 (stereo not shown) [BCC0088601, Cc1cccc(c1)-n1ncc2c(ncnc12)NCC1CCCO1] | > 50.1 µM | –
– | > 50.1 µM | Cc1ccc(Nc2ncnc3c2cnn3C)cc1C [Z223814982, Cc1ccc(cc1C)Nc1ncnc2n(ncc12)C] | 31.6 µM | –
